Common to all, as to assay type: biochemical
One test addresses T1, IRAK4 (Homo sapiens, UniProt Q9NWZ3).
T1 sequence (Q9NWZ3 1-460): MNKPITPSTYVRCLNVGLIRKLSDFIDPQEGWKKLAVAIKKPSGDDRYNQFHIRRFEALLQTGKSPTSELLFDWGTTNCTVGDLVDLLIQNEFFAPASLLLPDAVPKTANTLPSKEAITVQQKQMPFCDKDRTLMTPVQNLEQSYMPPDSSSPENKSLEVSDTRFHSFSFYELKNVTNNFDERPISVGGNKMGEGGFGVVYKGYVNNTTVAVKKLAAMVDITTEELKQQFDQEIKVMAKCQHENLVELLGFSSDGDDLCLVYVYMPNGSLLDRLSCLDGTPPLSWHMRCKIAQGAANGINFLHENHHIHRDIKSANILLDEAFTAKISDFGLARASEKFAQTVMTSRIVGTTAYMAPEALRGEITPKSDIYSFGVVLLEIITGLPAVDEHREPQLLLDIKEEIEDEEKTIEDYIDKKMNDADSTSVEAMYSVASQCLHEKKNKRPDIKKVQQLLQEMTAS
Nature of the test: RBC HotSpot Kinase Assay, IRAK4. Details: purchased Reaction Biology (RBC HotSpot Kinase Assay). From the text: (§1) This assay uses the isolated kinase enzyme. This assay is very useful for determining competition of the inhibitor for ATP and/or substrates and for measuring the kinetics of enzyme inhibition. […] Unlike kinase binding assays that measure competition for ATP, the HotSpot Kinase Assay is a functional assay that measures catalytic activity; as such it measures relative functional potency regardless of the mechanism of enzyme inhibition. This assay uses the form of the various enzymes that are easiest to express, which may not necessarily be the form of the enzyme that exist in the cell. (Sometimes the carboxy terminus has been truncated to aid in expression, or, if it is a receptor kinase, the enzyme itself is isolated from the other parts of the receptor that are involved in regulating kinase activity.)
(§2) The reagent used was as follows: Base Reaction buffer; 20 mM Hepes (pH 7.5), 10 mM MgCl2, 1 mM EGTA, 0.01% Brij35, 0.02 mg/ml BSA, 0.1 mM Na3VO4, 2 mM DTT, 1% DMSO. Required cofactors were added individually to each kinase reaction.
(§3) The reaction procedure was as follows: • 1) Substrates were prepared in freshly prepared Reaction Buffer. • 2) Any required cofactors were delivered to the substrate solution above. • 3) Kinase was delivered into the substrate solution and gently mixed. • 4) Compounds were delivered in 100% DMSO into the kinase reaction mixture by Acoustic technology (Echo550; nanoliter range), followed by incubation for 20 min at room temp. • 5) ^33P-ATP was delivered into the reaction mixture to initiate the reaction. • 6) The mixture was incubated for 2 hours at room temperature. • 7) Kinase activity was detected by P81 filter-binding method.

For the next test, the target named is T2, FLT3 (Homo sapiens, UniProt P36888).
T2 construct: purchased Reaction Biology (RBC HotSpot Kinase Assay)
T2 sequence (P36888 564-958 limits assumed): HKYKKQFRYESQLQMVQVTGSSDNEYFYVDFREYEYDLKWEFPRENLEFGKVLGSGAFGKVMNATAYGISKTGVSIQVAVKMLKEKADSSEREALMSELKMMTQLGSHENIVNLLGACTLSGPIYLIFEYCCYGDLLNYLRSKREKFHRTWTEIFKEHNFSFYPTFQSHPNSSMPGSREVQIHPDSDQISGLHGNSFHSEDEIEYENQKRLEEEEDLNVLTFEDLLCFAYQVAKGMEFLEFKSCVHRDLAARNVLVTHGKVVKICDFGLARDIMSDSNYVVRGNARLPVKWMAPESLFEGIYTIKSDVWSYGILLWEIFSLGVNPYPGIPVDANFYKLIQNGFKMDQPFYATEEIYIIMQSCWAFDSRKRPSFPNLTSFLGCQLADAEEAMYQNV
Put plainly: RBC HotSpot Kinase Assay, FLT3.
Description: as §1, §2, §3

For the next test, the target named is T3, IRAK1 (Homo sapiens, UniProt P51617).
T3 construct: purchased Reaction Biology (RBC HotSpot Kinase Assay)
T3 sequence (P51617 whole entry): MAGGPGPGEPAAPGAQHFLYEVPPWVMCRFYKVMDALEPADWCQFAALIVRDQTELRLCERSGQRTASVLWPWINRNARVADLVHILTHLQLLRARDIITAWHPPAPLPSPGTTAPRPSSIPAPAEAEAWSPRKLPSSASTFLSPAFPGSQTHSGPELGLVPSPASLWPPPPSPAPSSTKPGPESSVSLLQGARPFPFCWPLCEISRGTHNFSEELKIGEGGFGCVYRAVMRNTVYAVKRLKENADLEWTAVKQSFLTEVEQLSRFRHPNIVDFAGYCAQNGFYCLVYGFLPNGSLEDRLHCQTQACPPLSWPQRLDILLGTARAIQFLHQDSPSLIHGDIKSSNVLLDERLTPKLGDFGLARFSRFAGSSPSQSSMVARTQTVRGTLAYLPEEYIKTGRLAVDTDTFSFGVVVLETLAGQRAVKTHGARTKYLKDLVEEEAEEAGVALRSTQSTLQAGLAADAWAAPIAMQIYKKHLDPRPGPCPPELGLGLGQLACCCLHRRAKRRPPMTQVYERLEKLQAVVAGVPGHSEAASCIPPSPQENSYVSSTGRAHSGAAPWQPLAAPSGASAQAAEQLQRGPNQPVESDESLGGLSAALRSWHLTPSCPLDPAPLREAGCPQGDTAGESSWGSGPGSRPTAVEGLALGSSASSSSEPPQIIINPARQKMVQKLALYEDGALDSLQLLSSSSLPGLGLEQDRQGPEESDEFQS
Put plainly: RBC HotSpot Kinase Assay, IRAK1.
Description: as §1, §2, §3

One may read the IC50 as the concentration at which inhibition is half-maximal. Low readings indicate higher potency, high ones lower potency.

Some results are limits rather than exact numbers.

As to `Fc1cc(F)c2c(-c3ccc4ncc(-c5cccc(NC6CNCC6(F)F)n5)n4n3)cnn2c1` (stereo not drawn) [Compound 55, 6-(6-(4,6-difluoropyrazolo[1,5-a]pyridin-3-yl)imidazo[1,2-b]pyridazin-3-yl)-N-(4,4-difluoropyrrolidin-3-yl)pyridin-2-amine], the IC50 turned out to be 113 nM against IRAK4, 16 nM against FLT3 and 6840 nM against IRAK1.

Take `F[C@H]1CNC[C@@H]1Nc1cccc(-c2cnc3ccc(NC4CCCCC4)nn23)n1` [Compound 92, N-cyclohexyl-3-(6-(((3S,4S)-4-fluoropyrrolidin-3-yl)amino)pyridin-2-yl)imidazo[1,2-b]pyridazin-6-amine]: the IC50 against IRAK4 came to 1080 nM; against FLT3, 78 nM; against IRAK1, 1640 nM.

In the case of `c1cc(NC2CC3(CNC3)C2)nc(-c2cnc3ccc(-c4cn[nH]c4)nn23)c1` [Compound 31, N-(6-(6-(1H-pyrazol-4-yl)imidazo[1,2-b]pyridazin-3-yl)pyridin-2-yl)-2-azaspiro[3.3]heptan-6-amine], the IC50 at IRAK4 came to 6 nM; against FLT3, 0.5 nM; against IRAK1 it was 49 nM.

As for `c1cc(NC2CC3(CNC3)C2)nc(-c2cnc3ccc(-c4cnn(C5CCOCC5)c4)nn23)c1` [Compound 34, N-(6-(6-(1-(tetrahydro-2H-pyran-4-yl)-1H-pyrazol-4-yl)imidazo[1,2-b]pyridazin-3-yl)pyridin-2-yl)-2-azaspiro[3.3]heptan-6-amine], the IC50 at IRAK4 was 5070 nM; at FLT3, 16 nM; against IRAK1 it was greater than 10000 nM.

On to `FC(F)n1cc(-c2ccc3ncc(-c4cccc(N[C@H]5CNC[C@@H]5F)n4)n3n2)cn1` [Compound 2, 6-(6-(1-(difluoromethyl)-1 H-pyrazol-4-yl)imidazo[1,2-b]pyridazin-3-yl)-N-((3S,4S)-4-fluoropyrrolidin-3-yl)pyridin-2-amine], for which the IC50 against IRAK4 worked out at 115 nM; against FLT3, 2 nM; at IRAK1, 948 nM.

Turning to `Cn1cc(-c2ccc3ncc(-c4cccc(N[C@H]5CNC[C@@H]5C(F)(F)F)n4)n3n2)cn1` [Compound 11, 6-(6-(1-methyl-1 H-pyrazol-4-yl)imidazo[1,2-b]pyridazin-3-yl)-N-((3R,4S)-4-(trifluoromethyl)pyrrolidin-3-yl)pyridin-2-amine], the figures for the IC50 at IRAK4, against FLT3 and against IRAK1 were 21 nM, less than 0.5 nM and 860 nM, respectively.

As to `FC1(F)CNCC1Nc1cccc(-c2cnc3ccc(-c4cnn5ccccc45)nn23)n1` (stereo not drawn) [Compound 56, N-(4,4-difluoropyrrolidin-3-yl)-6-(6-(pyrazolo[1,5-a]pyridin-3-yl)imidazo[1,2-b]pyridazin-3-yl)pyridin-2-amine], the IC50 at IRAK4 was found to be 1 nM; on FLT3, 0.8 nM; on IRAK1 it was 80 nM.

On to `FC(F)c1ccc2ncc(-c3cccc(N[C@H]4CNC[C@@H]4F)n3)n2n1` [Compound 78, 6-(6-(difluoromethyl)imidazo[1,2-b]pyridazin-3-yl)-N-((3S,4S)-4-fluoropyrrolidin-3-yl)pyridin-2-amine], for which the IC50 on IRAK4 stood at 29 nM; against FLT3, 6 nM; against IRAK1, 1860 nM.

Turning to `Cn1cc(-c2ccc3ncc(-c4cccc(NC5CCNC5)n4)n3n2)cn1` (stereo not drawn) [Compound 30, 6-(6-(1-methyl-1H-pyrazol-4-yl)imidazo[1,2-b]pyridazin-3-yl)-N-(pyrrolidin-3-yl)pyridin-2-amine], the 50% inhibitory concentration (IC50) at IRAK4 came out at 104 nM; against FLT3 it was 2 nM; against IRAK1 it was 565 nM.

In the case of `O[C@H]1CNC[C@@H]1Nc1cccc(-c2cnc3ccc(C4CC4)nn23)n1` [Compound 70, (3S,4S)-4-((6-(6-cyclopropylimidazo[1,2-b]pyridazin-3-yl)pyridin-2-yl)amino)pyrrolidin-3-ol], the IC50 on IRAK4 turned out to be 586 nM; against FLT3 it was 18 nM; against IRAK1, 5190 nM.

For `Cn1cc(-c2ccc3ncc(-c4cccc(NC5CC6(CCNC6)C5)n4)n3n2)cn1` (stereo not drawn) [Compound 42, N-(6-(6-(1-methyl-1H-pyrazol-4-yl)imidazo[1,2-b]pyridazin-3-yl)pyridin-2-yl)-6-azaspiro[3.4]octan-2-amine], the figures for the IC50 at IRAK4, on FLT3 and at IRAK1 were 113 nM, 3 nM and 2220 nM, respectively.

`c1ccc(-n2cc(-c3ccc4ncc(-c5cccc(NC6CCC7(CNC7)C6)n5)n4n3)cn2)cc1` (stereo not drawn) [Compound 47, N-(6-(6-(1-phenyl-1H-pyrazol-4-yl)imidazo[1,2-b]pyridazin-3-yl)pyridin-2-yl)-2-azaspiro[3.4]octan-6-amine]: the values for the IC50 against IRAK4, at FLT3 and against IRAK1 were 3200 nM, 19 nM and greater than 10000 nM, respectively.

Consider `Cc1oncc1-c1ccc2ncc(-c3cccc(NC4CCC5(CNC5)C4)n3)n2n1` (stereo not drawn) [Compound 50, N-(6-(6-(5-methylisoxazol-4-yl)imidazo[1,2-b]pyridazin-3-yl)pyridin-2-yl)-2-azaspiro[3.4]octan-6-amine], for which the IC50 on IRAK4 was found to be 2670 nM; at FLT3, 8 nM; at IRAK1 it was 1060 nM.

As for `COc1cc2ncc(-c3cccc(N[C@H]4CNC[C@@H]4F)n3)n2nc1-c1cn[nH]c1` [Compound 119], the IC50 is less than 0.5 nM against IRAK4, less than 0.5 nM against FLT3 and 75 nM at IRAK1.

For the molecule `CC(C)(O)Cn1cc(-c2ccc3ncc(-c4cccc(N[C@@H]5CCCNC5)n4)n3n2)cn1` [Compound 18, (R)-2-methyl-1-(4-(3-(6-(piperidin-3-ylamino)pyridin-2-yl)imidazo[1,2-b]pyridazin-6-yl)-1 H-pyrazol-1-yl)propan-2-ol], the IC50 on IRAK4 turned out to be 1410 nM; against FLT3, 4 nM; on IRAK1, 2440 nM.

Turning to `c1cc(NC2CCC3(CNC3)C2)nc(-c2cnc3ccc(-c4cnn5ccccc45)nn23)c1` (stereo not drawn) [Compound 63, N-(6-(6-(pyrazolo[1,5-a]pyridin-3-yl)imidazo[1,2-b]pyridazin-3-yl)pyridin-2-yl)-2-azaspiro[3.4]octan-6-amine], the results for the IC50 on IRAK4, on FLT3 and against IRAK1 were 28 nM, less than 0.5 nM and 269 nM, respectively.

Turning to `Cn1cc(-c2ccc3ncc(-c4cccc(NC5CNCC5(F)F)n4)n3n2)cn1` (stereo not drawn) [Compound 21, N-(4,4-difluoropyrrolidin-3-yl)-6-(6-(1-methyl-1H-pyrazol-4-yl)imidazo[1,2-b]pyridazin-3-yl)pyridin-2-amine], the IC50 was 38 nM at IRAK4, 6 nM against FLT3 and 497 nM against IRAK1.

For `COc1cc2ncc(-c3cccc(N[C@H]4CNC[C@@H](F)C4)n3)n2nc1C1(C(F)(F)F)CC1` [Compound 86, N-((3R,5S)-5-fluoropiperidin-3-yl)-6-(7-methoxy-6-(1-(trifluoromethyl)cyclopropyl)imidazo[1,2-b]pyridazin-3-yl)pyridin-2-amine], the IC50 against IRAK4 was determined as 37 nM; at FLT3 it was 2 nM; on IRAK1, 937 nM.

Regarding `c1cc(NC2CC3(CCNC3)C2)nc(-c2cnc3ccc(-c4cnn(C5CNC5)c4)nn23)c1` (stereo not drawn) [Compound 44, N-(6-(6-(1-(azetidin-3-yl)-1H-pyrazol-4-yl)imidazo[1,2-b]pyridazin-3-yl)pyridin-2-yl)-6-azaspiro[3.4]octan-2-amine], the IC50 against IRAK4 was 4340 nM; at FLT3 it was 4 nM; against IRAK1 it was greater than 10000 nM.

`CC(C)n1cc(-c2ccc3ncc(-c4cccc(NC5CC6(CNC6)C5)n4)n3n2)cn1` [Compound 32, N-(6-(6-(1-isopropyl-1H-pyrazol-4-yl)imidazo[1,2-b]pyridazin-3-yl)pyridin-2-yl)-2-azaspiro[3.3]heptan-6-amine]: the values for the IC50 at IRAK4, at FLT3 and against IRAK1 were 630 nM, 9 nM and 3410 nM, respectively.

Source of the values: patent US12534469B2 (CHILDREN'S HOSPITAL MEDICAL CENTER, priority 2020, dated 2026).
